Measurements as given in US9717708B1, “Process for preparing ertapenem-containing lyophilized formulation” (DAEWOONG PHARMACEUTICAL CO., LTD., priority 2014, dated 2017).

Columns and labels:
[1] = Purity (HPLC) before and after lyophilization and during storage, lyophilized formulation containing doripenem monohydrate; type: physicochemical; details: lyophilized formulations containing doripenem
Procedure: (§1) Hydroxypropyl β-cyclodextrin (HP-β-CD) [MS=0.65, 2.76 g (1.0 eq.)] was dissolved in distilled water (16 mL). After cooling the solution to 0˜5° C., 10 portions of ertapenem monosodium salt (1 g in total, each portion having the same amount) were sequentially added to the solution for 60 minutes, while maintaining pH 7.8 with a 2N NaOH solution. The resulting solution was sterile-filtered at 0˜5° C., filled in a vial, and then lyophilized as follows: The filled vial was located on the shelf of a lyophilizer pre-cooled to −40° C. and then cooled for 3 hours. Vacuum (80 mTorr) was applied to the shelf, which was then heated to −20° C. at the rate of 0.5° C./min. The shelf was maintained under the conditions of −20° C. and 80 mTorr for 48 hours. The shelf was heated to 10° C. at the rate of 0.1° C./min and then to 40° C. at the rate of 0.5° C./min. […]
(§2) We evaluated whether or not hydroxypropyl β-cyclodextrin can also function both as a cryoprotective agent and as a stabilizing agent in the lyophilized formulations containing carbapenem antibiotics other than ertapenem. […] The purities before the lyophilization, the purities right after the lyophilization, and the purities of the lyophilized formulations which were respectively stored at low temperature (−20° C.), at room temperature, and under the accelerated (40° C., RH75%) condition for 4 weeks were respectively measured with a HPLC. […]

[2] = Purity (HPLC) before and after lyophilization and during storage, lyophilized formulation containing meropenem trihydrate; type: physicochemical; details: lyophilized formulations containing meropenem
Procedure: as §1, §2

| Compound | function of hydroxypropyl β-cyclodextrin as cryoprotective and stabilizing agent [1] | function of hydroxypropyl β-cyclodextrin as cryoprotective and stabilizing agent [2] |
| --- | --- | --- |
| C[C@@H](O)[C@H]1C(=O)N2C(C(=O)O)=C(S[C@@H]3CN[C@H](CNS(N)(=O)=O)C3)[C@H](C)[C@H]12 [doripenem, doripenem monohydrate] | did not function as a cryoprotective agent nor as a stabilizing agent |  |
| C[C@@H](O)[C@H]1C(=O)N2C(C(=O)O)=C(S[C@@H]3CN[C@H](C(=O)N(C)C)C3)[C@H](C)[C@H]12 [meropenem, meropenem trihydrate] |  | did not function as a cryoprotective agent nor as a stabilizing agent |
